Series [1] addresses Acetylcholinesterase (Homo sapiens, UniProt P22303). As to the kind of experiment: Inhibition of human recombinant AChE expressed in HEK293 cells using […] as substrate preincubated with enzyme for 20 mins followed by substrate addition and measured after 5 mins by Ellman's method. (Ellman's reagent forms a yellow product with free thiols.)
The target of series [2] is T1, Cholinesterase (Homo sapiens, UniProt P06276). The series can be described thus: Inhibition of human serum BuChe by Ellman's method.
For a further series, the system named is Primary neuron. The series can be described thus: Neuroprotective activity against serum/K+ deprivation induced cytotoxicity in rat primary neuronal cells up to 10 uM by MTT assay. The class given is functional, cell-based.
Series [3] deals with Cerebellar granule neurone. As to the kind of experiment: Neuroprotective activity against 6-OHDA-induced cytotoxicity in rat primary cerebellar granule neuron at 1 to 25 uM by MTT assay. The class given is functional, cell-based.
The test system of series [4] is Cerebellar granule neurone. As to the kind of experiment: Cytotoxicity in rat Primary cerebellar granule neuron assessed as cell viability up to 5 uM after 24 hrs by MTT assay. The class given is cell-based.
Series [5] can be described thus: Cytotoxicity against human HepG2 cells assessed as cell survival at 1 to 25 uM after 24 hrs by MTT assay relative to control. The class given is cell-based. The settings on record: read-out: Activity. For orientation: Tetrazolium dyes change colour on reduction, which living cells bring about.
A short description of series [6]: Stability of compound in human plasma at 10 uM measured up to 360 mins by LC-MS analysis. In kind it is ADME, cell-free. The settings on record: 6 h.
The target of series [7] is T1, Cholinesterase. As to the kind of experiment: Potency index, ratio of tacrine IC50 to compound IC50 for human serum BuChe by Ellman's method.
In series [8] the target is T2, Acetylcholinesterase (Electrophorus electricus, UniProt O42275).
Description: Inhibition of electric eel AChE assessed as dissociation constant for enzyme-inhibitor complex using acetylthiocholine iodide as substrate measured for 125 secs by Ellman's method
In series [9] the target is T2, Acetylcholinesterase. The source holds these as a separate data set.
Description: Inhibition of electric eel AChE assessed as dissociation constant for enzyme-substrate-inhibitor complex using acetylthiocholine iodide as substrate measured for 125 secs by Ellman's method
For series [10], the target named is T3, Cholinesterase (Equus caballus, UniProt P81908).
Description: Inhibition of equine serum BuChE assessed as dissociation constant for enzyme-inhibitor complex using butyrylthiocholine iodide as substrate measured for 125 secs by Ellman's method
Series [11] deals with T3, Cholinesterase. The source holds these as a separate data set.
Description: Inhibition of equine serum BuChE assessed as dissociation constant for enzyme-substrate-inhibitor complex using butyrylthiocholine iodide as substrate measured for 125 secs by Ellman's method
Series [12] concerns the target Amyloid-beta precursor protein (Homo sapiens) (UniProt P05067). To be noted: at 50 µM.
Description: Inhibition of amyloid beta (1 to 42) (unknown origin) self aggregation at 50 uM incubated for 48 hrs by thioflavin-T fluorescence method relative to control

The values that follow come from ChEMBL document CHEMBL4359860, “Tacrine-O-protected phenolics heterodimers as multitarget-directed ligands against Alzheimer's disease: Selective subnanomolar BuChE inhibitors” (Eur J Med Chem, 2019).

Broadly, the IC50 is the concentration at which inhibition is half-maximal. One may read the Ki as a measure of affinity in units of concentration, obtained from inhibition or displacement. High values mean weaker binding, low ones tighter binding. Usually inhibition stands for the drop in the measured response relative to a control, in per cent.

The source made the active and inactive calls. The rule behind the calls is not given here.

T1 sequence (P06276 whole entry): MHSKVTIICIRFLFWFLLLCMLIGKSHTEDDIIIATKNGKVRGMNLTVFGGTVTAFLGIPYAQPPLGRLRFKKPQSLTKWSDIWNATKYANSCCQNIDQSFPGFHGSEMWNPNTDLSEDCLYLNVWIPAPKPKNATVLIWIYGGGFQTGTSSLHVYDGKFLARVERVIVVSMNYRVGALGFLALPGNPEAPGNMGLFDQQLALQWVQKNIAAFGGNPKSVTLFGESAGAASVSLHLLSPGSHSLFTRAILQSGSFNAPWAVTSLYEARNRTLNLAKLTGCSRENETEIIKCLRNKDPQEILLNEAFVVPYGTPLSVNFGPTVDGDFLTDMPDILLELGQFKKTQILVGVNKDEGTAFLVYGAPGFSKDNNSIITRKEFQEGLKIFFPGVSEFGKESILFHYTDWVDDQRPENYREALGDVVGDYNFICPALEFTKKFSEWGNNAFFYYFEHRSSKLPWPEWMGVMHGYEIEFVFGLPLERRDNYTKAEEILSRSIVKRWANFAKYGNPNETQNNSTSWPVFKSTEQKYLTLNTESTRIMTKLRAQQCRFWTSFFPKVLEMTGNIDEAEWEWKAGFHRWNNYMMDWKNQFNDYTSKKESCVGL
T2 sequence (O42275 whole entry): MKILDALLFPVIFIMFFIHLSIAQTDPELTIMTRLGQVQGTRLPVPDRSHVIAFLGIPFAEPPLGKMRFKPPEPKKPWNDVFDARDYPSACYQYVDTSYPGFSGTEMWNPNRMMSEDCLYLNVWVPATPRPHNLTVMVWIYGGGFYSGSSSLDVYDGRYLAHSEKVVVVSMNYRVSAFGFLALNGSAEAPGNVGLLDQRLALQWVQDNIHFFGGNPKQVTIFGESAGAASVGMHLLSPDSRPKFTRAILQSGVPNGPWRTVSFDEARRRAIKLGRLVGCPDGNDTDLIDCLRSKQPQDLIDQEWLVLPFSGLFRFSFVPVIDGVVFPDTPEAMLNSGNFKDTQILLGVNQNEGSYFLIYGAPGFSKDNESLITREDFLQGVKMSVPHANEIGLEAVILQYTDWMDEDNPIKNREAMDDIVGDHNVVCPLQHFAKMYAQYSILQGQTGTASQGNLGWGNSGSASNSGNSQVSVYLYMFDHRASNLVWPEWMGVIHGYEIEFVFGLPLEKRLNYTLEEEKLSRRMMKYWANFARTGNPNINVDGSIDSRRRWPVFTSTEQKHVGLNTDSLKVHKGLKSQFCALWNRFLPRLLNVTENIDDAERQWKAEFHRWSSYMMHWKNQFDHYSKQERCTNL
T3 sequence (P81908 whole entry): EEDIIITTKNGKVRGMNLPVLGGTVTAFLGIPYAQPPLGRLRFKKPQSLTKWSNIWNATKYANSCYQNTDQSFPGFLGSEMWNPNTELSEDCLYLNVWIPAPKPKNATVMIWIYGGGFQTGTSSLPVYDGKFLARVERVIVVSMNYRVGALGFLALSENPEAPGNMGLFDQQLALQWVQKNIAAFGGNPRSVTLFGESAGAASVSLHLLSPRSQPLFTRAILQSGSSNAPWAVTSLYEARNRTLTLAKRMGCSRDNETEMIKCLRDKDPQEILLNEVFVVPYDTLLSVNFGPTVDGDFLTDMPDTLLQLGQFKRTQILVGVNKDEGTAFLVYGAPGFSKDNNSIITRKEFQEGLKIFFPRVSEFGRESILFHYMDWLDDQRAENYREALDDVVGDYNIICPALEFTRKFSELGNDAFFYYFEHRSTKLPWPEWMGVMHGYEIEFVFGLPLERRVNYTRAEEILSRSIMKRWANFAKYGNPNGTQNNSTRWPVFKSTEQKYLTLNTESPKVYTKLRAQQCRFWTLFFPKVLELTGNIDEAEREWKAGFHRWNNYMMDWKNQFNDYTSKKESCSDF
Sequence of Acetylcholinesterase (Homo sapiens, UniProt P22303) (P22303 whole entry): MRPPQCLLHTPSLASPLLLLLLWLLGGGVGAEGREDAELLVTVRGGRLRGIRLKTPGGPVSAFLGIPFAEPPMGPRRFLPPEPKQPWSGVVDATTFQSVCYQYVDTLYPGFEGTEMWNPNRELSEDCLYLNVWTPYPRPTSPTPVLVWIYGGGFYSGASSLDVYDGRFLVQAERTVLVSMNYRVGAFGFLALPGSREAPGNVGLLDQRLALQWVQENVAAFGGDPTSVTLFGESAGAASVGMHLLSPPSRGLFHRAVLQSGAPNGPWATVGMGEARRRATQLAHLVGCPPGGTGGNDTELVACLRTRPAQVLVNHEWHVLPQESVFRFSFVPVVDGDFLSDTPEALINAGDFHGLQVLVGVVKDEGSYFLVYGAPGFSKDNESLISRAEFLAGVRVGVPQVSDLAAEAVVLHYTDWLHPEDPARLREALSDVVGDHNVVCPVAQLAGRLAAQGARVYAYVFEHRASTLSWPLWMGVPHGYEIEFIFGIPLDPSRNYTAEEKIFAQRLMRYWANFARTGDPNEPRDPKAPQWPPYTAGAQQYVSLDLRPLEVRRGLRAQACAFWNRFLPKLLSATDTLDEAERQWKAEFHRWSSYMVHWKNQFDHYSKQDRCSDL
Sequence of Amyloid-beta precursor protein (Homo sapiens) (P05067 whole entry): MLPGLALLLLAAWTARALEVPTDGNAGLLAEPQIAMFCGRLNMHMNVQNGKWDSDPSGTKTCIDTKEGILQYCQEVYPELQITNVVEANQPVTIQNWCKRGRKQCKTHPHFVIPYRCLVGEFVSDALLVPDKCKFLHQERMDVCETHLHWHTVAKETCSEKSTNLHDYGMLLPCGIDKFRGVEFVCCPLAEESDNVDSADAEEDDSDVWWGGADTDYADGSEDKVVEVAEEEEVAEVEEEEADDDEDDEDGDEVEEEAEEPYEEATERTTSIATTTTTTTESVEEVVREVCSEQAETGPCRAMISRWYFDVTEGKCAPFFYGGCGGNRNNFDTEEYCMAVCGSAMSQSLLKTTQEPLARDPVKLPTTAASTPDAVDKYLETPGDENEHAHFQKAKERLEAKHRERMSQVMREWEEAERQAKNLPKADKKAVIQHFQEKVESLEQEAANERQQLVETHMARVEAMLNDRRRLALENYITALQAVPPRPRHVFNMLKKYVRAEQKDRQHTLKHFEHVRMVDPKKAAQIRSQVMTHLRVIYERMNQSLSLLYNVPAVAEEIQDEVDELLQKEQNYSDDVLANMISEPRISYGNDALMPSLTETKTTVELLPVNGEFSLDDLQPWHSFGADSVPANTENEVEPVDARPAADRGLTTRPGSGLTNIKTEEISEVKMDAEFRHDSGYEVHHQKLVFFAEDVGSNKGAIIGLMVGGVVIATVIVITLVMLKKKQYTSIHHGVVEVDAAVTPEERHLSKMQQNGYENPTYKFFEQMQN

With `COc1ccc(CCOCCCCCNc2c3c(nc4ccccc24)CCCC3)cc1OC`, the IC50 turned out to be 168 nM on Acetylcholinesterase [1] and 0.515 nM at Cholinesterase [2]. Also, in the series on Primary neuron, the result was Active. Moreover, the outcome in [3] was inactive. In addition, the Activity result in [4] is “Non-Toxic”. The viability at 24 h, 25 µM in series [5] lay in the range of 60 to 70%. Moreover, the Stability entry in series [6] was “Stable”. In addition, on Cholinesterase [7], the Ratio IC50 came to 85. Moreover, the Ki turned out to be 170 nM on Acetylcholinesterase [8], 55 nM at Acetylcholinesterase [9], 7 nM at Cholinesterase [10] and 1.9 nM on Cholinesterase [11]. The same molecule gave an inhibition in [12] of 63.8%.
